Test results reported in patent US12122750B2, “AT2R antagonists and uses thereof” (Eli Lilly and Company, priority 2022, dated 2024).

Each compound was assayed against recombinant human angiotensin-II receptor subtype 2 (hAT2R) (Homo sapiens (Human), UniProt P50052) (assay: Competitive radioligand binding assay (SPA), hAT2R HEK293 membranes). Settings: [125I]-Tyr4-Angiotensin-II, read-out: AT2R Ki.
Procedure: Compound Solubilization Test and reference compounds were received as dry powder reagents, weighed, and solubilized in 100% DMSO to generate a working stock concentration of 10 mM. Membrane Preparation Protocol (hAT2R HEK293 and rAT2R HEK293) hAT2R membranes were prepared from human embryonic kidney (HEK293) cells which were stably transfected with recombinant human angiotensin-II receptor subtype 2 (hAT2R). Cells from the stable cell lines were expanded in tissue culture flasks to generate a large population of cells; cell pellet (>1 gm), and these cell pellets were stored frozen prior to initiating this membrane isolation procedure for each receptor isoform. Frozen cell pellets were thawed in ice-cold homogenization/resuspension buffer (50 mM Tris-HCl, pH 7.5) containing one Complete© protease inhibitor tablet with EDTA (Roche Diagnostics) per 50 mL buffer, and cell pellet was resuspended at a ratio of 10 mL homogenization buffer to gram of starting cell pellet. Cell suspension was homogenized with an overhead motor-driven Teflon-glass homogenizer using 15 to 20 strokes, followed by centrifugation at 1100×g for 10 minutes at 4° C. The supernatant was saved on ice, pellets were homogenized as before, and centrifuged at 1100×g for 10 minutes at 4° C. Both supernatants were combined and subsequently centrifuged at 35,000×g for 60 minutes at 4° C. The final centrifugation pellet (pellet 2) containing the isolated membranes was resuspended in buffer (4 to 5 mL/g of starting cell paste) containing protease inhibitors and quick frozen in liquid nitrogen prior to storage at -80° C. Protein concentration was determined using a BCA kit (ThermoScientific, Inc.) with bovine serum albumin (BSA) as standard. […] The assays were performed with a scintillation proximity assay (SPA) method using polyvinyltoluene (PVT) wheat germ agglutinin-coupled SPA beads (Perkin Elmer Cat. #RPNQ0001). Assay buffer containing BSA (50 mM Tris-HCl, pH 7.5, 150 mM NaCl, 0.1% w/v fatty-acid free BSA) was used for preparing radioligand, membrane and SPA bead reagent dilution to working stock concentrations. Reference control and test compounds were diluted to obtain ten-point concentration response curves using a four-fold serial dilution protocol onto assay plates, dispensed acoustically from DMSO stock using automated ECHO instrument technology (Labcyte, Inc.). Concentration response curves were routinely generated with the highest final assay concentration for the reference angiotensin-II control at 50 nM, and the highest final assay concentration for the test compounds at 50 μM. […] The hAT2R membrane was combined with PVT-WGA SPA beads to obtain a final assay concentration of 0.25 μg/well hAT2R membrane+0.1 mg/well PVT-WGA SPA bead. And the hAT1R membrane PVT-WGA SPA bead final concentrations was 0.5 μg/well hAT1R membrane+0.1 mg/well PVT-WGA SPA bead. […] For all assays, radioligand addition was followed by the addition of membrane-SPA bead mixture, i.e., the hAT2R membrane-SPA bead mixture (30 μL), the rAT2R membrane-SPA bead mixture, or the AT1R membrane-SPA bead mixture (30 μL) into the assay plate. All dispensing steps were added using a Multiflo FX (Biotek, Inc.) bulk dispensing instrument. After reagent addition steps, assay plates were sealed, and plate contents mixed for one minute on a benchtop micro-plate shaker. Following a 10-hour incubation at room temperature to allow for bead settling and radioligand binding, bound radioactivity was quantitated using a Microbeta Trilux scintillation counter (Perkin Elmer) and expressed as counts per minute (CPM). The unlabeled angiotensin-II control was included on each plate as an experimental assay reference. […] Data Analysis Procedures Compounds were tested in a 10-point concentration response curve (CRC) format, with each plate containing the positive control angiotensin-II positive reference compound, and experimental compounds.

Sequence of recombinant human angiotensin-II receptor subtype 2 (hAT2R) (P50052 whole entry): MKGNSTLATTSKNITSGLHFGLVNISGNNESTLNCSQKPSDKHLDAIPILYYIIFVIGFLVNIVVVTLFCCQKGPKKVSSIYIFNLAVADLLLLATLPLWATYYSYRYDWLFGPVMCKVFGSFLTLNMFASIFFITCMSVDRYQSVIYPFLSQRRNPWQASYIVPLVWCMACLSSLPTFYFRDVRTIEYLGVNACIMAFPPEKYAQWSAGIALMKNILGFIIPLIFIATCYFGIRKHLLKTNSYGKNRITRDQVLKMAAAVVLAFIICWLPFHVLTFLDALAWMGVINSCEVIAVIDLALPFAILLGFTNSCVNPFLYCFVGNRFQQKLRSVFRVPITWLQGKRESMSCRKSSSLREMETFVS

Ki [nM] | SMILES
5.39 | CN(C(=O)N1CCC(CC(=O)N(c2ccccc2)C2CCOCC2)(C(=O)O)CC1)c1ccc(C2CC2)cc1 [Example 26, 1-[(4-cyclopropylphenyl)-methyl-carbamoyl]-4-[2-oxo-2-(N-tetrahydropyran-4-ylanilino)ethyl]piperidine-4-carboxylic acid]
2.62 | CN(C(=O)N1CCC(CC(=O)N(c2ccccc2)C2CCCC2)(C(=O)O)CC1)c1ccc(F)cc1 [Example 9, 4-[2-(N-cyclopentylanilino)-2-oxo-ethyl]-1-[(4-fluorophenyl)-methyl-carbamoyl]piperidine-4-carboxylic acid]
0.987 | Cc1ccccc1N(C(=O)CC1(C(=O)O)CCN(C(=O)N(C)c2ccc(F)cc2)CC1)c1ccccc1 [Example 37, 1-[(4-fluorophenyl)-methyl-carbamoyl]-4-[2-[N-(o-tolyl)anilino]-2-oxo-ethyl]piperidine-4-carboxylic acid]
2 | CN(C(=O)N1CCC(CC(=O)N(c2ccc(F)cc2)C2CCCC(F)(F)C2)(C(=O)O)CC1)c1ccccc1 (racemic) [Example 54, 4-[2-(N-(3,3-difluorocyclohexyl)-4-fluoro-anilino)-2-oxo-ethyl]-1-[methyl(phenyl)carbamoyl]piperidine-4-carboxylic acid]
1.69 | CCN(C(=O)N1CCC(CC(=O)N(c2ccccc2)C2CCCCC2)(C(=O)O)CC1)c1ccc(F)cc1 [Example 15, 4-[2-(N-cyclohexylanilino)-2-oxo-ethyl]-1-[ethyl-(4-fluorophenyl)carbamoyl]piperidine-4-carboxylic acid]
0.383 | O=C(N1CCC(CC(=O)N(c2ccccc2)C2CCCC(F)(F)C2)(C(=O)O)CC1)N1CCc2ccc(F)cc21 (single isomer, unassigned) [Example 72B, 4-[2-(N-(3,3-difluorocyclohexyl)anilino)-2-oxo-ethyl]-1-(6-fluoroindoline-1-carbonyl)piperidine-4-carboxylic acid]
3.59 | O=C(CC1(C(=O)O)CCN(c2ccccc2)CC1)N(c1ccccc1)C1CCCCC1 [Example 48, 4-[2-(N-cyclohexylanilino)-2-oxo-ethyl]-1-phenyl-piperidine-4-carboxylic acid]
3.18 | O=C(N1CCC(CC(=O)N(c2cccc(F)c2)c2ccccc2F)(C(=O)O)CC1)N1CCc2ccccc21 [Example 60, 4-[2-(3-fluoro-N-(2-fluorophenyl)anilino)-2-oxo-ethyl]-1-(indoline-1-carbonyl)piperidine-4-carboxylic acid]
1.37 | O=C(CC1(C(=O)O)CCN(C(=O)N(c2ccc(F)cc2)C2CC2)CC1)N(c1ccccc1)c1ccccc1F [Example 40, 1-[cyclopropyl-(4-fluorophenyl)carbamoyl]-4-[2-(N-(2-fluorophenyl)anilino)-2-oxo-ethyl]piperidine-4-carboxylic acid]
0.774 | CN(C(=O)N1CCC(CC(=O)N(c2ccccc2)c2cccc(F)c2)(C(=O)O)CC1)c1ccc(F)cc1 [compound 24, 4-[2-(N-(3-fluorophenyl)anilino)-2-oxo-ethyl]-1-[(4-fluorophenyl)-methyl-carbamoyl]piperidine-4-carboxylic acid]
2.68 | CN(C(=O)N1CCC(CC(=O)N(c2ccccc2)C2CCCOC2)(C(=O)O)CC1)c1ccc(C2CC2)cc1 (single isomer, unassigned) [Example 45B, 1-[(4-cyclopropylphenyl)-methyl-carbamoyl]-4-[2-oxo-2-(N-tetrahydropyran-3-ylanilino)ethyl]piperidine-4-carboxylic acid]
1.09 | O=C(N1CCC(CC(=O)N(c2ccccc2)C2CCCC(F)(F)C2)(C(=O)O)CC1)N1CCc2ccc(F)cc21 (racemic) [Example 72, 4-[2-(N-(3,3-difluorocyclohexyl)anilino)-2-oxo-ethyl]-1-(6-fluoroindoline-1-carbonyl)piperidine-4-carboxylic acid]
4.01 | CN(C(=O)N1CCC(CC(=O)N(c2ccc(F)cc2)C2CCCCC2)(C(=O)O)CC1)c1ccc(F)cc1 [compound 21, 4-[2-(N-cyclohexyl-4-fluoro-anilino)-2-oxo-ethyl]-1-[(4-fluorophenyl)-methyl-carbamoyl]piperidine-4-carboxylic acid]
1.94 | N#Cc1ccc2c(c1)N(C(=O)N1CCC(CC(=O)N(c3ccccc3)C3CCCCC3)(C(=O)O)CC1)CC2 [Example 33, 1-(6-cyanoindoline-1-carbonyl)-4-[2-(N-cyclohexylanilino)-2-oxo-ethyl]piperidine-4-carboxylic acid]
3.11 | CN(C(=O)N1CCC(CC(=O)N(c2ccccc2)c2ccccc2F)(C(=O)O)CC1)C(C1CC1)C1CC1 [Example 55, 1-[dicyclopropylmethyl(methyl)carbamoyl]-4-[2-(N-(2-fluorophenyl)anilino)-2-oxo-ethyl]piperidine-4-carboxylic acid]
3.11 | Cc1ccc(N(C(=O)CC2(C(=O)O)CCN(C(=O)N(C)c3ccc(F)cc3)CC2)c2ccccc2)cc1 [compound 29, 1-[(4-fluorophenyl)-methyl-carbamoyl]-4-[2-oxo-2-[N-(p-tolyl)anilino]ethyl]piperidine-4-carboxylic]
1.56 | CN(C(=O)N1CCC(CC(=O)N(c2ccccc2)C2CCCCC2(F)F)(C(=O)O)CC1)c1ccc(F)cc1 (racemic) [Example 10, 4-[2-(N-(2,2-difluorocyclohexyl)anilino)-2-oxo-ethyl]-1-[(4-fluorophenyl)-methyl-carbamoyl]piperidine-4-carboxylic acid]
3.73 | O=C(N1CCC(CC(=O)N(c2ccc(F)cc2)c2ccccc2F)(C(=O)O)CC1)N1CCc2ccccc21 [Example 61, 4-[2-(4-fluoro-N-(2-fluorophenyl)anilino)-2-oxo-ethyl]-1-(indoline-1-carbonyl)piperidine-4-carboxylic acid]
3.02 | CN(C(=O)N1CCC(CC(=O)N(c2ccccc2)C2CCC(F)(F)CC2)(C(=O)O)CC1)c1ccc(F)cc1 [Example 8, 4-[2-(N-(4,4-difluorocyclohexyl)anilino)-2-oxo-ethyl]-1-[(4-fluorophenyl)-methyl-carbamoyl]piperidine-4-carboxylic acid]
6.46 | CC(C)N(C(=O)N1CCC(CC(=O)N(c2ccccc2)c2ccccc2F)(C(=O)O)CC1)c1ccc(F)cc1 [Example 38, 4-[2-(N-(2-fluorophenyl)anilino)-2-oxo-ethyl]-1-[(4-fluorophenyl)-isopropyl-carbamoyl]piperidine-4-carboxylic acid]
1.44 | Cc1ccc(N(C)C(=O)N2CCC(CC(=O)N(c3ccccc3)C3CCCCC3)(C(=O)O)CC2)cc1 [Example 13, 4-[2-(N-cyclohexylanilino)-2-oxo-ethyl]-1-[methyl(p-tolyl)carbamoyl]piperidine-4-carboxylic acid]
3.03 | O=C(N1CCC(CC(=O)N(c2ccccc2)C2CCCC(F)(F)C2)(C(=O)O)CC1)N1CCc2cccc(F)c21 (racemic) [Example 73, 4-[2-(N-(3,3-difluorocyclohexyl)anilino)-2-oxo-ethyl]-1-(7-fluoroindoline-1-carbonyl)piperidine-4-carboxylic acid]
0.521 | CN(C(=O)N1CCC(CC(=O)N(c2ccccc2)C2CCCCC2)(C(=O)O)CC1)c1ccccc1F [Example 12, 4-[2-(N-cyclohexylanilino)-2-oxo-ethyl]-1-[(2-fluorophenyl)-methyl-carbamoyl]piperidine-4-carboxylic acid]
2.7 | COc1cccc(N(C(=O)CC2(C(=O)O)CCN(C(=O)N(C)c3ccc(F)cc3)CC2)c2ccccc2)c1 [compound 25, 1-[(4-fluorophenyl)-methyl-carbamoyl]-4-[2-(N-(3-methoxyphenyl)anilino)-2-oxo-ethyl]piperidine-4-carboxylic acid]
